Results on two compounds are retold here after patent US20050222402A1, “Dna encoding rat bombesin receptor subtype-3 (brs-3) and uses thereof” (priority 2001, published 2005).

What all share (test): Calcium mobilization assay (FLIPR), substitution mutant
What all share (assay type): cell-based
Background: A change in cytosolic calcium serves as a functional read-out for many receptors and channels.

The target of assay [1] is T1, Rat BRS-3/IF (RB3-IF) (Rattus norvegicus, UniProt Q8K418, V310I/V311F).
T1 construct: expressed in transfected cells; host or cells: 293EBNA cells, pE3 expression vector
T1 sequence (Q8K418 1-399 V310I/V311F): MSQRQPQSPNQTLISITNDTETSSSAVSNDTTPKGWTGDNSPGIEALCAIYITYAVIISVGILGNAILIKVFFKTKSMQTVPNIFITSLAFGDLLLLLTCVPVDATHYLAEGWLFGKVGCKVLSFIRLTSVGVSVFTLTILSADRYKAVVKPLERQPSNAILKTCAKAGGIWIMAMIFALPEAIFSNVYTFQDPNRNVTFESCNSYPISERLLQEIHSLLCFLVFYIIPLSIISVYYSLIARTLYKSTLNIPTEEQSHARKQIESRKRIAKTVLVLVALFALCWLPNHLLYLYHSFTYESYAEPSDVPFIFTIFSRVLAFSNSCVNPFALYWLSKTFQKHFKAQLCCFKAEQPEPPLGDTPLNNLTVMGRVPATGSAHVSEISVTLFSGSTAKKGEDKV
The source says: (§1) Chimeric rat/human BRS-3 genes and substitution mutant rat BRS-3 genes were constructed by using PCR mutagenesis techniques (Fong, T. in Structure-function analysis of G protein coupled receptors, J, Wess, ed, Wiley-Liss, pp. 1-20, (1999)). All the mutant and wild type BRS-3 genes were cloned into pE3 expression vector which contains CMV early promoter, hygromycin-resistance gene and OriP segment from Epstein-Bar virus.
(§2) The functional activity of rat BRS-3 was also studied by measuring the agonist-induced calcium mobilization response using a Fluorescence Imaging Plate Reader (Molecular Devices, Sunnyvale, Calif.). Transfected 293EBNA cells were plated onto poly-D-lysine coated 96-well plates with black wall and clear bottom (Becton Dickinson, Franklin Lakes, N.J.). After 16-48 hr culture, the cells were loaded with 4 uM Fluo-3-AM fluorescent calcium-indicator dye (Molecular Probes, Eugene, OR) in assay buffer (Hank's balanced salts solution, 10 mM HEPES, pH7.4, 0.1% bovine serum albumin, 2.5 mM probenecid).
(§3) The changes in intracellular calcium concentration, as indicated by Fluo-3 fluorescence, were immediately measured by FLIPR. Maximal changes in fluorescence over base line were used to determine agonist response.
(§4) The EC50 values were mean±S.E. calculated from dose-response curves of 3-5 repeated experiments using FLIPR assays.
(§5) To determine which amino acids in the E3 loop of human BRS-3 conferred dYB activity upon rat BRS-3, several substitution BRS-3 mutants were made in which the amino acids in the E3 loop of rat BRS-3 were substituted with residues that match human BRS-3.

The target of assay [2] is T2, Rat BRS-3/VD (RB3-VD) (Rattus norvegicus, UniProt Q8K418, A302V/E303D).
T2 construct: expressed in transfected cells; host or cells: 293EBNA cells, pE3 expression vector
T2 sequence (Q8K418 1-399 A302V/E303D): T1 sequence (Q8K418 1-399 V310I/V311F) with A302V, E303D, I310V, F311V
Text: as §1, §2, §3, §4, §5

Assay [3] deals with T3, Rat BRS-3/AMH (RB3-AMH) (Rattus norvegicus, UniProt Q8K418, D306A/P308H/V307M).
T3 construct: expressed in transfected cells; host or cells: 293EBNA cells, pE3 expression vector
T3 sequence (Q8K418 1-399 D306A/V307M/P308H): T1 sequence (Q8K418 1-399 V310I/V311F) with D306A, V307M, P308H, I310V, F311V
Text: as §1, §2, §3, §4, §5

Assay [4] addresses T4, Rat BRS-3/SQT (RB3-SQT) (Rattus norvegicus, UniProt Q8K418, E299Q/S300T/Y298S).
T4 construct: expressed in transfected cells; host or cells: 293EBNA cells, pE3 expression vector
T4 sequence (Q8K418 1-399 Y298S/E299Q/S300T): T1 sequence (Q8K418 1-399 V310I/V311F) with Y298S, E299Q, S300T, I310V, F311V
Text: as §1, §2, §3, §4, §5

Positions count from the first letter of the chain named. Non-standard residues stand in square brackets, D forms with d. Residues, ends and D or L forms follow the SMILES beside them. Nle = CCCC[C@H](N)C(=O)O; βAla = NCCC(=O)O

For the compound `CCCC[C@H](NC(=O)[C@H](Cc1ccccc1)NC(=O)[C@H](Cc1c[nH]cn1)NC(=O)CCNC(=O)[C@@H](NC(=O)[C@H](C)NC(=O)[C@H](Cc1c[nH]c2ccccc12)NC(=O)[C@H](CCC(N)=O)NC(=O)[C@H](N)Cc1ccc(O)cc1)C(C)C)C(N)=O` [dYB, [D-Tyr6-betaAla11-Phe13-Nle14] bombesin (6-14)] (H-[dY]QWAV[βAla]HF[Nle]-NH2), the “effect of mutation on dYB receptor activity” value in assay [1] (RBB3-IF vs rat BRS-3) and in assay [2] (RBB3-VD vs rat BRS-3) was “little effect on the receptor activity” in each case. The “improvement of dYB potency in calcium mobilization” value in assay [3] (RB3-AMH vs rat BRS-3) is 6 fold; in assay [4] (RB3-SQT vs rat BRS-3), 5 fold.

Regarding `CCCC[C@H](NC(=O)[C@H](Cc1ccccc1)NC(=O)[C@H](Cc1cnc[nH]1)NC(=O)CCNC(=O)[C@@H](NC(=O)[C@H](C)NC(=O)[C@H](Cc1c[nH]c2ccccc12)NC(=O)[C@H](CCC(N)=O)NC(=O)[C@H](N)Cc1ccc(O)cc1)C(C)C)C(N)=O` [dYB, [D-Tyr6-betaAla11-Phe13-Nle14] bombesin (6-14)] (H-[dY]QWAV[βAla]HF[Nle]-NH2), the EC50 (as a rule, the midpoint of the concentration-response curve) in assay [1] came to 1300 ± 230 nM; in assay [2], 930 ± 150 nM; in assay [3], 370 ± 70 nM; in assay [4], 390 ± 80 nM.
